Assay results reported in patent publication US7183383B2, “Uses of collagen IV” (The University of Arkansas for Medical Sciences, priority 2002, dated 2007).

Assays:
[1] = test system: prolyl hydroxylase activity in renal proximal tubular cells; assay: Proline hydroxylation in newly synthesized collagen IV (dual labeling); format: cell-based, rabbit; details: day 1 after DCVC
Description: Proline hydroxylation in collagen molecules occurs at the 4-trans position. Therefore, the extent of proline hydroxylation can be estimated by the loss of hydrogen from the 4-trans position of proline in the hydroxylation reaction. A previously described dual-labeling technique for the determination of proline hydroxylation was modified using [^14C]-L-proline and 4-[^3H]-L-proline incorporation into collagen IV and measuring the ratio of [^3H]:[^14C] in collagen IV molecules (5). A greater extent of proline hydroxylation at the 4-trans position of proline will result in a decrease in the ratio of [^3H]:[^14C] in newly synthesized collagen molecules due to the loss of [^3H]. Renal proximal tubular cells were dual-labeled for 24 hours with [^14C]-L-proline ([…]) and 4-[^3H]-L-proline (62.5 μCi/ml) immediately after S-(1,2-dichlorovinyl)-L-cysteine exposure. Cell-associated and deposited proteins were harvested, and collagen IV was immunoprecipitated as described above. Immunoprecipitated collagen IV was visualized by SDS-PAGE as described above, the 206 kDa bands in the destained gels were excised, and the protein was extracted with 90% hyamine hydroxide overnight at 37° C. [^14C]-Proline and 4-[^3H]-proline in collagen IV was determined using liquid scintillation spectrometry, and the extent of proline hydroxylation was calculated as the ratio of [^3H]:[^14C].

[2] = test system: collagen IV deposition in renal proximal tubular cells; assay: Newly deposited collagen IV (immunoprecipitation, autoradiography, densitometry); format: cell-based, rabbit
Protocol: Immunoprecipitation of newly synthesized and deposited collagen IV was performed using the method of Niki et al., with some modifications (34). On days 1, 4, and 6 after sublethal S-(1,2-dichlorovinyl)-L-cysteine injury, renal proximal tubular cells were metabolically labeled for 24 hours with 25 μCi/ml of [^35S]-L-methionine. Cell monolayers were washed with PBS, solubilized for 30 minutes in lysis buffer (20 mM Tris-HCl (pH 8.8), 2 mM EDTA, 0.2 mM PMSF, 10 mM N-ethylmaleimide, 1% Triton X-100, 1% sodium deoxycholic acid, 150 mM NaCl, and 1 mM EGTA) containing protease inhibitors (25 μg/ml pepstatin A, 12.5 μg/ml leupeptin, 12.5 μg/ml aprotinin), and centrifuged at 15,000×g for 10 minutes at 4° C. The resulting supernatants (soluble fraction, cell-associated collagen) were transferred to fresh tubes, snap frozen in liquid N2, and stored at −80° C. Pelleted material (insoluble fraction, ECM-associated collagen) was resuspended in pellet solubilization buffer (20 mM Tris-HCl (pH 8.8), 2 mM EDTA, 0.2 mM PMSF, 10 mM N-ethylmaleimide, 1% sodium dodecyl sulfate, and 10 mM dithiothreitol), sonicated, boiled for 5 minutes, and incubated in the presence of iodoacetamide (25 mM) for 30 minutes at 37° C. with shaking. Samples were centrifuged at 15,000×g for 10 minutes at 4° C. Supernatants were then transferred to fresh microcentrifuge tubes, snap frozen in liquid N2, and stored at −80° C. Protein concentration in cell-associated and ECM-associated fractions was determined using a Coomassie protein microassay (Pierce, Rockford, Ill.) with BSA as the standard. Sample aliquots equaling 0.5 mg of total protein were diluted 3-fold in immunoprecipitation buffer (20 mM Tris-HCl (pH 8.8), 2 mM EDTA, 0.2 mM PMSF, 10 mM N-ethylmaleimide) and precleared with 20 μl (50% slurry) of Protein G-agarose beads for 2 hours. Samples were then incubated overnight with 0.05 mg of an anti-collagen IV monoclonal antibody (clone M3F7) at 4° C. with vigorous shaking. Samples were incubated for 2 hours at 4° C. with shaking in the presence of goat anti-mouse IgG at a concentration in two-fold excess of that of the primary antibody. Immune complexes were precipitated for 2 hours at 4° C. with shaking using 40 μl (50% slurry) of Protein G-agarose beads.
To collect the collagen IV immune complexes, samples were centrifuged at 15,000×g for 1 minute at 4° C. […]
(§1) Radiolabeled collagen IV was separated by SDS-PAGE and visualized by autoradiography (22). […] After film development, densitometry of the resulting 206 kDa bands was calculated using NIH Image software.

[3] = 37° C.; cited from earlier work
[4] = test system: collagen IV synthesis in renal proximal tubular cells; assay: Newly synthesized collagen IV (immunoprecipitation, autoradiography, densitometry); format: cell-based, rabbit
Protocol: Immunoprecipitation of newly synthesized and deposited collagen IV was performed using the method of Niki et al., with some modifications (34). On days 1, 4, and 6 after sublethal S-(1,2-dichlorovinyl)-L-cysteine injury, renal proximal tubular cells were metabolically labeled for 24 hours with 25 μCi/ml of [^35S]-L-methionine. Cell monolayers were washed with PBS, solubilized for 30 minutes in lysis buffer (20 mM Tris-HCl (pH 8.8), 2 mM EDTA, 0.2 mM PMSF, 10 mM N-ethylmaleimide, 1% Triton X-100, 1% sodium deoxycholic acid, 150 mM NaCl, and 1 mM EGTA) containing protease inhibitors (25 μg/ml pepstatin A, 12.5 μg/ml leupeptin, 12.5 μg/ml aprotinin), and centrifuged at 15,000×g for 10 minutes at 4° C. The resulting supernatants (soluble fraction, cell-associated collagen) were transferred to fresh tubes, snap frozen in liquid N2, and stored at −80° C. […] Protein concentration in cell-associated and ECM-associated fractions was determined using a Coomassie protein microassay (Pierce, Rockford, Ill.) with BSA as the standard. […]
as §1

O=C1O[C@H]([C@@H](O)CO)C(O)=C1OP(=O)(O)O [L-ascorbic acid-2-phosphate, L-Ascorbic acid-2-phosphate]
ratio of 4-[^3H]-L-proline:[^14C]-L-proline greater than controls ([1]; 500 μM AscP): approximately 45%
collagen IV deposition in DCVC-injured RPTC ([2]; 500 μM AscP, throughout the experiment): maintained collagen IV deposition at levels equal to that of controls
collagen IV deposition by uninjured RPTC, pharmacological vs physiological AscP ([2]; uninjured RPTC, not statistically significant): numerical increase
stable in culture media [3]: ≥ 7 days
collagen IV synthesis, 500 μM compared to 50 μM AscP ([4]; day 1, uninjured RPTC): decreased

N[C@@H](CSC(Cl)=CCl)C(=O)O [S-(1,2-dichlorovinyl)-L-cysteine]
ratio of 4-[^3H]-L-proline:[^14C]-L-proline greater than controls ([1]; 50 μM AscP, higher ratio = decreased proline hydroxylation): approximately 80%
decrease in collagen IV deposition compared to controls ([2]; day 4 after DCVC, physiological AscP, not statistically significant): approximately 50%
collagen IV deposition ([2]; one day after DCVC, 50 μM AscP): significantly inhibited
increase in collagen IV synthesis ([4]; one day after DCVC, both 50 μM and 500 μM AscP): 1.8 fold
